Measurements taken from ChEMBL document CHEMBL3272189, “Orally active esters of cephalosporin antibiotics. Synthesis and biological properties of acyloxymethyl esters of 7-(D-2-amino-2-phenylacetamido)-3-[5-methyl-(1,3,4-thiadiazol-2-yl)thiomethyl]-3-cephem-4-carboxylic acid” (J Med Chem, 1977).
Values after ≈ are worked out from the molar mass of the structure shown.

Tests used:
[1] = Drug excretion in Lai:COX (Standard)BR mouse urine at 17 mg/kg, po after 40 mins; format: ADME, organism-based; design: dose 17 mg/kg, route oral; conditions: read-out: Drug excretion
[2] = Half life in 0.1 M sodium phosphate buffer at 50 ug/ml at pH 6.5; format: physicochemical
[3] = Half life in 0.1 M sodium phosphate buffer at 50 ug/ml at pH 7.5; format: physicochemical
[4] = Drug excretion in Lai:COX (Standard)BR mouse urine at 17 mg/kg, po after 100 mins; format: ADME, organism-based; design: dose 17 mg/kg, route oral; conditions: read-out: Drug excretion
[5] = Drug excretion in Lai:COX (Standard)BR mouse urine at 17 mg/kg, po after 120 mins; format: ADME, organism-based; design: dose 17 mg/kg, route oral; conditions: read-out: Drug excretion
[6] = Drug absorption in Lai:COX (Standard)BR mouse assessed as compound remaining in gastrointestinal tract at 17 mg/kg, po after 40 mins; format: ADME, organism-based; design: dose 17 mg/kg, route oral; conditions: read-out: Stability
[7] = Drug excretion in Lai:COX (Standard)BR mouse urine at 17 mg/kg, po after 5 mins; format: ADME, organism-based; design: dose 17 mg/kg, route oral; conditions: read-out: Drug excretion
[8] = Half life in 0.1 M sodium phosphate buffer at 50 ug/ml at pH 4.5; format: physicochemical
[9] = Drug excretion in Lai:COX (Standard)BR mouse urine at 17 mg/kg, po after 80 mins; format: ADME, organism-based; design: dose 17 mg/kg, route oral; conditions: read-out: Drug excretion
[10] = Drug excretion in Lai:COX (Standard)BR mouse urine at 17 mg/kg, po after 60 mins; format: ADME, organism-based; design: dose 17 mg/kg, route oral; conditions: read-out: Drug excretion
[11] = Drug excretion in Lai:COX (Standard)BR mouse urine at 17 mg/kg, po after 20 mins; format: ADME, organism-based; design: dose 17 mg/kg, route oral; conditions: read-out: Drug excretion
[12] = Drug absorption in Lai:COX (Standard)BR mouse assessed as compound remaining in gastrointestinal tract at 17 mg/kg, po after 20 mins; format: ADME, organism-based; design: dose 17 mg/kg, route oral; conditions: read-out: Stability
Shigella sp. = experiment: Antibacterial activity against Shigella sp. assessed as growth inhibition by gradient-plate assay; format: functional
[13] = Drug excretion in Lai:COX (Standard)BR mouse urine at 17 mg/kg, sc after 100 mins; format: ADME, organism-based; design: dose 17 mg/kg, route subcutaneous; conditions: read-out: Drug excretion
[14] = Antibacterial activity against Salmonella heidelberg assessed as growth inhibition by gradient-plate assay; format: functional, Salmonella enterica subsp. enterica serovar Heidelberg; conditions: Salmonella enterica
Klebsiella aerogenes = experiment: Antibacterial activity against Enterobacter aerogenes assessed as growth inhibition by gradient-plate assay; format: functional
[15] = Drug excretion in Lai:COX (Standard)BR mouse urine at 17 mg/kg, sc after 20 mins; format: ADME, organism-based; design: dose 17 mg/kg, route subcutaneous; conditions: read-out: Drug excretion
Serratia marcescens = experiment: Antibacterial activity against Serratia marcescens assessed as growth inhibition by gradient-plate assay; format: functional
Klebsiella pneumoniae = experiment: Antibacterial activity against Klebsiella pneumoniae assessed as growth inhibition by gradient-plate assay; format: functional
[16] = Drug excretion in Lai:COX (Standard)BR mouse urine at 17 mg/kg, sc after 120 mins; format: ADME, organism-based; design: dose 17 mg/kg, route subcutaneous; conditions: read-out: Drug excretion
[17] = Drug excretion in Lai:COX (Standard)BR mouse urine at 17 mg/kg, sc after 80 mins; format: ADME, organism-based; design: dose 17 mg/kg, route subcutaneous; conditions: read-out: Drug excretion
[18] = Drug excretion in Lai:COX (Standard)BR mouse urine at 17 mg/kg, sc after 40 mins; format: ADME, organism-based; design: dose 17 mg/kg, route subcutaneous; conditions: read-out: Drug excretion
Staphylococcus aureus = experiment: Antibacterial activity against penicillin-resistant, coagulase-positive Staphylococcus aureus assessed as growth inhibition by gradient-plate assay; format: functional
[19] = Drug excretion in Lai:COX (Standard)BR mouse urine at 17 mg/kg, sc after 60 mins; format: ADME, organism-based; design: dose 17 mg/kg, route subcutaneous; conditions: read-out: Drug excretion
[20] = Drug excretion in Lai:COX (Standard)BR mouse urine at 17 mg/kg, sc after 5 mins; format: ADME, organism-based; design: dose 17 mg/kg, route subcutaneous; conditions: read-out: Drug excretion
Escherichia coli = experiment: Antibacterial activity against Escherichia coli assessed as growth inhibition by gradient-plate assay; format: functional
Blood = experiment: Drug uptake in Lai:COX (Standard)BR mouse blood at 17 mg/kg, po; format: ADME, organism-based; design: dose 17 mg/kg, route oral; conditions: in vivo

dose excreted at 40 min [1] [%] | half-life at 50 ug/ml [2] [min] | half-life at 50 ug/ml [3] [min] | dose excreted at 100 min [4] [%] | dose excreted at 2 h [5] [%] | remaining at 40 min [6] [%] | half-life at 50 ug/ml [8] [h] | dose excreted at 80 min [9] [%] | dose excreted at 1 h [10] [%] | dose excreted at 20 min [11] [%] | remaining at 20 min [12] [%] | SMILES | MIC (Shigella sp.) [µg/mL] | MIC [14] [µg/mL] | MIC (Klebsiella aerogenes) [µg/mL] | MIC (Serratia marcescens) [µg/mL] | MIC (Klebsiella pneumoniae) [µg/mL] | MIC (Staphylococcus aureus) [µg/mL] | MIC (Escherichia coli) [µg/mL] | further results
38.9 | 45 | 25 | 41.8 | 41.5 | 25 | 32 | 48.2 | 43.2 | 20.8 | 40.5 | Cc1nnc(SCC2=C(C(=O)OCOC(=O)C(C)(C)C)N3C(=O)[C@@H](NC(=O)[C@H](N)c4ccccc4)[C@H]3SC2)s1.Cl | – | – | – | – | – | – | – | dose excreted at 5 min [7]: 3.6%
32.5 | 60 | 25 | 38.3 | 36.8 | 31.5 | 27 | 36.1 | 33.1 | 20.4 | 39.1 | CC(=O)OCOC(=O)C1=C(CSc2nnc(C)s2)CS[C@@H]2[C@H](NC(=O)[C@H](N)c3ccccc3)C(=O)N12.Cl | – | – | – | – | – | – | – | –
22.1 | 25 | 15 | 34 | – | 35 | – | 30.5 | 35 | 8.3 | 59 | Cc1nnc(SCC2=C(C(=O)OC3OC(=O)c4ccccc43)N3C(=O)[C@@H](NC(=O)[C@H](N)c4ccccc4)[C@H]3SC2)s1.Cl (stereo not given in full) | – | – | – | – | – | – | – | –
– | – | – | – | – | – | – | – | – | – | – | CC1=C(C(=O)O)N2C(=O)[C@@H](NC(=O)[C@H](N)c3ccccc3)[C@H]2SC1 [CEPHALEXIN ANHYDROUS] | 9 (≈ 25.9 µM) | 5.5 (≈ 15.8 µM) | 6.8 (≈ 19.6 µM) | 140 (≈ 403 µM) | 7 (≈ 20.1 µM) | 4.5 (≈ 13 µM) | 8.5 (≈ 24.5 µM) | –

SMILES | dose excreted at 40 min [1] [%] | half-life at 50 ug/ml [2] [min] | half-life at 50 ug/ml [3] [min] | dose excreted at 100 min [4] [%] | dose excreted at 2 h [5] [%] | remaining at 40 min [6] [%] | half-life at 50 ug/ml [8] [h] | dose excreted at 80 min [9] [%] | dose excreted at 1 h [10] [%] | dose excreted at 20 min [11] [%] | remaining at 20 min [12] [%] | MIC (Shigella sp.) [µg/mL] | MIC [14] [µg/mL] | MIC (Klebsiella aerogenes) [µg/mL] | MIC (Serratia marcescens) [µg/mL] | MIC (Klebsiella pneumoniae) [µg/mL] | MIC (Staphylococcus aureus) [µg/mL] | MIC (Escherichia coli) [µg/mL] | further results
Cc1nnc(SCC2=C(C(=O)O)N3C(=O)[C@@H](NC(=O)[C@H](N)c4ccccc4)[C@H]3SC2)s1 | 8.4 | 76 | 54 | 22.4 | 14.1 | 67.5 | 47 | 17.5 | 13.2 | 2.8 | 81.2 | 1 (≈ 2.09 µM) | 1 (≈ 2.09 µM) | 0.8 (≈ 1.68 µM) | 26.5 (≈ 55.5 µM) | 0.6 (≈ 1.26 µM) | 0.7 (≈ 1.47 µM) | 1 (≈ 2.09 µM) | dose excreted at 100 min [13]: 54.1%; dose excreted at 20 min [15]: 25%; dose excreted at 2 h [16]: 54.1%; dose excreted at 80 min [17]: 56.7%; dose excreted at 40 min [18]: 46.5%; dose excreted at 1 h [19]: 50.7%; dose excreted at 5 min [20]: 2.8%; Drug uptake (Blood): Active
